Reference: US20110190125A1, “2-(BENZYLSULFONYL)OXAZOLE DERIVATIVES, CHIRAL 2-(BENZYLSULFINYL)OXAZOLE DERIVATIVES” (BAYER CROPSCIENCE AG, priority 2008, published 2011)

Assays:
Type in all cases: in vivo
[1] = tested on: Lolium multiflorum; assay: Post-emergence herbicidal effect (greenhouse pot test); details: post-emergence method, application rate of 0.32 kg and less of active substance per hectare, rated visually after about 3 weeks
Description: (§1) Seeds of monocotyledonous and dicotyledonous weed and crop plants are placed in sandy loam in wood-fiber pots, covered with soil and cultivated in a greenhouse under good growth conditions. 2 to 3 weeks after sowing, the test plants are treated at the one-leaf stage. The compounds according to the invention, formulated in the form of wettable powders (WP), are then sprayed as aqueous suspension at a water application rate of 600 I/ha (converted) with the addition of 0.2% of wetting agent onto the green parts of the plants. After the test plants have been kept in the greenhouse under optimum growth conditions for about 3 weeks, the activity of the preparations is rated visually in comparison to untreated controls (herbicidal activity in percent (%): 100% activity=the plants have died, 0% activity=like control plants).

[2] = tested on: Echinochloa crus galli; assay: as above; details: post-emergence method, application rate of 0.32 kg and less of active substance per hectare, rated visually after about 3 weeks
Description: as §1

[3] = tested on: Lolium multiflorum; assay: Pre-emergence herbicidal effect (greenhouse pot test); details: pre-emergence method, application rate of 0.32 kg and less of active substance per hectare, scored visually after about 3 weeks
Excerpt: (§2) Seeds of monocotyledonous or dicotyledonous weed plants or crop plants are placed in sandy loam in wood-fiber pots and covered with soil. The compounds according to the invention, formulated in the form of wettable powders (WP), are then applied as aqueous suspension at a water application rate of 600 I/ha (converted) with the addition of 0.2% of wetting agent to the surface of the covering soil.
(§3) After the treatment, the pots are placed in a greenhouse and kept under good growth conditions for the test plants. After about 3 weeks, the effect of the preparations is scored visually in comparison with untreated controls (herbicidal effect in percent (%): 100% activity=the plants have died, 0% activity=like control plants).

[4] = tested on: Alopecurus myosuroides; assay: as above; details: pre-emergence method, application rate of 0.32 kg and less of active substance per hectare, scored visually after about 3 weeks
Excerpt: as §2, §3

[5] = tested on: Veronica persica; assay: as above; details: pre-emergence method, application rate of 0.32 kg and less of active substance per hectare, scored visually after about 3 weeks
Excerpt: as §2, §3

[6] = tested on: Echinochloa crus galli; assay: as above; details: pre-emergence method, application rate of 0.32 kg and less of active substance per hectare, scored visually after about 3 weeks
Excerpt: as §2, §3

Cc1ccc(C)c(C[S+]([O-])c2ncco2)c1 (stereo not drawn) [compound No. 131, 2-[(2,5-Dimethylbenzyl)sulfinyl]-1,3-oxazole]
very good herbicidal activity: herbicidal activity against Lolium multiflorum [1] | herbicidal activity against Echinochloa crus galli [2] | herbicidal activity against Lolium multiflorum [3] | herbicidal activity against Alopecurus myosuroides [4] | herbicidal activity against Veronica persica [5] | herbicidal activity against Echinochloa crus galli [6]

[O-][S+](Cc1c(Cl)cccc1Cl)c1ncco1 (racemic) [compound 44, 2-[(2,6-dichlorobenzyl)sulfinyl]-1,3-oxazole]
very good herbicidal activity: herbicidal activity against Lolium multiflorum [1] | herbicidal activity against Echinochloa crus galli [2] | herbicidal activity against Lolium multiflorum [3] | herbicidal activity against Alopecurus myosuroides [4] | herbicidal activity against Veronica persica [5] | herbicidal activity against Echinochloa crus galli [6]

[O-][S+](Cc1c(F)cccc1F)c1ncco1 (stereo not drawn) [compound No. 11, 2-[(2,6-Difluorobenzyl)sulfinyl]-1,3-oxazole]
very good herbicidal activity: herbicidal activity against Lolium multiflorum [3] | herbicidal activity against Alopecurus myosuroides [4] | herbicidal activity against Veronica persica [5] | herbicidal activity against Echinochloa crus galli [6]

[O-][S@@+](Cc1c(Cl)cccc1Cl)c1ncco1 [compound 2517]
very good herbicidal activity: herbicidal activity against Lolium multiflorum [1] | herbicidal activity against Echinochloa crus galli [2] | herbicidal activity against Lolium multiflorum [3] | herbicidal activity against Alopecurus myosuroides [4] | herbicidal activity against Veronica persica [5] | herbicidal activity against Echinochloa crus galli [6]

Cc1ccc(F)c(C[S+]([O-])c2ncco2)c1F (stereo not drawn) [compound No. 14, 2-[(2,6-Difluoro-3-methylbenzyl)sulfinyl]-1,3-oxazole]
very good herbicidal activity: herbicidal activity against Lolium multiflorum [3] | herbicidal activity against Alopecurus myosuroides [4] | herbicidal activity against Veronica persica [5] | herbicidal activity against Echinochloa crus galli [6]

[O-][S+](Cc1c(F)ccc(F)c1Cl)c1ncco1 (stereo not drawn) [compound No. 203, 2-[(2-Chloro-3,6-difluorobenzyl)sulfinyl]-1,3-oxazole]
very good herbicidal activity: herbicidal activity against Lolium multiflorum [1] | herbicidal activity against Echinochloa crus galli [2] | herbicidal activity against Lolium multiflorum [3] | herbicidal activity against Alopecurus myosuroides [4] | herbicidal activity against Veronica persica [5] | herbicidal activity against Echinochloa crus galli [6]

[O-][S+](Cc1c(Cl)ccc(Cl)c1Cl)c1ncco1 (stereo not drawn) [compound No. 65, 2-[(2,3,6-Trichlorobenzyl)sulfinyl]-1,3-oxazole]
very good herbicidal activity: herbicidal activity against Lolium multiflorum [1] | herbicidal activity against Echinochloa crus galli [2] | herbicidal activity against Lolium multiflorum [3] | herbicidal activity against Alopecurus myosuroides [4] | herbicidal activity against Veronica persica [5] | herbicidal activity against Echinochloa crus galli [6]

O=S(=O)(Cc1c(Cl)ccc(Cl)c1Cl)c1ncco1 [compound No. 66, 2-[(2,3,6-Trichlorobenzyl)sulfonyl]-1,3-oxazole]
very good herbicidal activity: herbicidal activity against Lolium multiflorum [3] | herbicidal activity against Alopecurus myosuroides [4] | herbicidal activity against Veronica persica [5] | herbicidal activity against Echinochloa crus galli [6]
